Results reported in US20250145594A1, “MODULATORS OF THE INTEGRATED STRESS PATHWAY” (Calico Life Sciences LLC, priority 2020, published 2025).

System: ATF4 luciferase reporter in HEK293T cells
Experiment: ATF4-Luc assay (in vitro model of VWMD)
Assay type: cell-based, human
Details: Homo sapiens, HEK-293T, 7 h, HEK293T cells carrying the ATF4 luciferase reporter, 1 μg/mL tunicamycin, One Glo luminescence
Outline: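 Stable HEK293T line expressing firefly luciferase behind the human ATF4 5′-UTR, treated with 1 μg/mL tunicamycin plus compound for 7 hours. Luminescence read with One Glo; EC50 determined.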

Compound | EC50
O=C(NC12CC(n3cc(-c4ccc(OC(F)(F)F)cn4)cn3)(C1)C2)[C@H]1C[C@@H](O)c2cc(Cl)ccc2O1 [Compound 308, (2R,4R)-6-chloro-4-hydroxy-N-(3-{4-[5-(trifluoromethoxy)pyridin-2-yl]-1H-pyrazol-1-yl}bicyclo[1.1.1]pentan-1-yl)-3,4-dihydro-2H-1-benzopyran-2-carboxamide] | < 0.01 µM
C[C@@H](COC(F)(F)F)N(C)c1cnn(C23CC(NC(=O)[C@H]4C[C@@H](O)c5cc(Cl)ccc5O4)(C2)C3)c1 [Compound 445, (2R,4R)-6-chloro-4-hydroxy-N-[3-(4-{methyl[(2S)-1-(trifluoromethoxy)propan-2-yl]amino}-1H-pyrazol-1-yl)bicyclo[1.1.1]pentan-1-yl]-3,4-dihydro-2H-1-benzopyran-2-carboxamide] | 0.5 to 2 µM
O=C(NC12CC(c3ccnc(-n4cc(C(F)(F)F)cn4)c3)(C1)C2)[C@H]1C[C@@H](O)c2cc(C(F)(F)F)ccc2O1 [Compound 558, (2R,4R)-4-hydroxy-6-(rifluoromethyl)-N-(3-{2-[4-(trifluoromethyl)-1H-pyrazol-1-yl]pyridin-4-yl}bicyclo[1.1.1]pentan-1-yl)-3,4-dihydro-2H-1-benzopyran-2-carboxamide] | 0.01 to 0.05 µM
O=C(COc1ccc(Cl)c(F)c1)NC12CCC(c3nnc([C@H]4C[C@@H](OC(F)(F)F)C4)o3)(CC1)CC2O (stereo partly drawn) [Compound 124, 2-(4-chloro-3-fluorophenoxy)-N-(2-hydroxy-4-{5-[(1s,3s)-3-(trifluoromethoxy)cyclobutyl]-1,3,4-oxadiazol-2-yl}bicyclo[2.2.2]octan-1-yl)acetamide] | 0.01 to 0.05 µM
O=C(COc1ccc(Cl)c(F)c1)NC12CC(n3cc(C(=O)N[C@H]4C[C@@H](OC(F)(F)F)C4)cn3)(C1)C2 [Compound 362, 1-{3-[2-(4-chloro-3-fluorophenoxy)acetamido]bicyclo[1.1.1]pentan-1-yl}-N-[cis-3-(trifluoromethoxy)cyclobutyl]-1H-pyrazole-4-carboxamide] | 0.05 to 0.25 µM
COc1ccc2nn(C34CCC(NC(=O)COc5ccc(Cl)c(F)c5)(CC3)[C@@H](O)C4)cc2c1 [Compound 597, 2-(4-chloro-3-fluorophenoxy)-N-[(2S)-2-hydroxy-4-(5-methoxy-2H-indazol-2-yl)bicyclo[2.2.2]octan-1-yl]acetamide] | 0.01 to 0.05 µM
O=C(NC12CC(n3cc(C[C@H]4C[C@@H](OC(F)(F)F)C4)cn3)(C1)C2)[C@H]1C[C@@H](O)c2cc(Cl)c(F)cc2O1 [Compound 532, (2R,4R)-6-chloro-7-fluoro-4-hydroxy-N-[3-(4-{[(1s,3R)-3-(trifluoromethoxy)cyclobutyl]methyl}-1H-pyrazol-1-yl)bicyclo[1.1.1]pentan-1-yl]-3,4-dihydro-2H-1-benzopyran-2-carboxamide] | < 0.01 µM
C[C@H](COC(F)(F)F)N(C)c1cnn(C23CC(NC(=O)[C@H]4C[C@@H](O)c5cc(Cl)ccc5O4)(C2)C3)c1 [Compound 448, (2R,4R)-6-chloro-4-hydroxy-N-[3-(4-{methyl[(2R)-1-(trifluoromethoxy)propan-2-yl]amino}-1H-pyrazol-1-yl)bicyclo[1.1.1]pentan-1-yl]-3,4-dihydro-2H-1-benzopyran-2-carboxamide] | 0.5 to 2 µM
O=C(NC12CC(n3cc(O[C@H]4C[C@@H](COC(F)(F)F)C4)cn3)(C1)C2)[C@H]1C[C@@H](O)c2cc(Cl)ccc2O1 [Compound 589, (2R,4R)-6-chloro-4-hydroxy-N-{3-[4-({(1s,3S)-3-[(trifluoromethoxy)methyl]cyclobutyl}oxy)-1H-pyrazol-1-yl]bicyclo[1.1.1]pentan-1-yl}-3,4-dihydro-2H-1-benzopyran-2-carboxamide] | 0.01 to 0.05 µM
O=C(CO[C@H]1C[C@@H](OC(F)(F)F)C1)NC12CCC(NC(=O)[C@H]3C[C@@H](O)c4cc(Cl)ccc4O3)(CC1)C[C@@H]2O [Compound 117, (2R,4R)-6-chloro-4-hydroxy-N-[(3S)-3-hydroxy-4-(2-{[(1s,3R)-3-(trifluoromethoxy)cyclobutyl]oxy}acetamido)bicyclo[2.2.2]octan-1-yl]-3,4-dihydro-2H-1-benzopyran-2-carboxamide] | < 0.01 µM
O=C(NC12CC(n3cc(OCCCOC(F)(F)F)cn3)(C1)C2)[C@H]1C[C@H](O)c2cc(C(F)(F)F)c(F)cc2O1 [Compound 636, (2R,4S)-7-fluoro-4-hydroxy-N-(3-{4-[3-(trifluoromethoxy)propoxy]-1H-pyrazol-1-yl}bicyclo[1.1.1]pentan-1-yl)-6-(trifluoromethyl)-3,4-dihydro-2H-1-benzopyran-2-carboxamide] | < 0.01 µM
O=C(NC12CC(n3cc(-c4ccc(OC(F)(F)F)cn4)cn3)(C1)C2)[C@H]1C[C@H](O)c2cc(Cl)c(F)cc2O1 [Compound 476, (2R,4S)-6-chloro-7-fluoro-4-hydroxy-N-(3-{4-[5-(trifluoromethoxy)pyridin-2-yl]-1H-pyrazol-1-yl}bicyclo[1.1.1]pentan-1-yl)-3,4-dihydro-2H-1-benzopyran-2-carboxamide] | < 0.01 µM
COc1cc2cn(C34CC(NC(=O)[C@H]5C[C@@H](O)c6cc(Cl)c(F)cc6O5)(C3)C4)nc2cn1 [Compound 498, (2R,4R)-6-chloro-7-fluoro-4-hydroxy-N-[3-(5-methoxy-2H-pyrazolo[3,4-c]pyridin-2-yl)bicyclo[1.1.1]pentan-1-yl]-3,4-dihydro-2H-1-benzopyran-2-carboxamide] | 0.01 to 0.05 µM
O=C(NC12CC(n3cc(OCCOC(F)(F)F)cn3)(C1)C2)[C@H]1C[C@@H](O)c2cc(Cl)ccc2O1 [Compound 412, (2R,4R)-6-chloro-4-hydroxy-N-(3-{4-[2-(trifluoromethoxy)ethoxy]-1H-pyrazol-1-yl}bicyclo[1.1.1]pentan-1-yl)-3,4-dihydro-2H-1-benzopyran-2-carboxamide] | < 0.01 µM
O=C(NC12CC(n3cc(-c4ccc(C(F)(F)F)cn4)cn3)(C1)C2)[C@H]1C[C@@H](O)c2cc(Cl)ccc2O1 [Compound 364, (2R,4R)-6-chloro-4-hydroxy-N-(3-{4-[5-(trifluoromethyl)pyridin-2-yl]-1H-pyrazol-1-yl}bicyclo[1.1.1]pentan-1-yl)-3,4-dihydro-2H-1-benzopyran-2-carboxamide] | < 0.01 µM
O=C(NC12CC(n3cc(-c4ccc(OC(F)(F)F)cn4)cn3)(C1)C2)[C@H]1C[C@H](O)c2cc(C(F)(F)F)c(F)cc2O1 [Compound 634, (2R,4S)-7-fluoro-4-hydroxy-N-(3-{4-[5-(trifluoromethoxy)pyridin-2-yl]-1H-pyrazol-1-yl}bicyclo[1.1.1]pentan-1-yl)-6-(trifluoromethyl)-3,4-dihydro-2H-1-benzopyran-2-carboxamide] | < 0.01 µM
O=C(NC12CC(n3cc(-c4ccn(C(F)(F)F)n4)cn3)(C1)C2)[C@H]1C[C@@H](O)c2cc(Cl)c(F)cc2O1 [Compound 562, (2R,4R)-6-chloro-7-fluoro-4-hydroxy-N-{3-[1-(trifluoromethyl)-1H,1′H-[3,4‘-bipyrazol]-1’-yl]bicyclo[1.1.1]pentan-1-yl}-3,4-dihydro-2H-1-benzopyran-2-carboxamide] | < 0.01 µM
O=C(CO[C@H]1C[C@@H](OC(F)(F)F)C1)NC12CC(NC(=O)[C@H]3C[C@@H](O)c4cc(Cl)c(Cl)cc4O3)(C1)C2 [Compound 494, (2R,4R)-6,7-dichloro-4-hydroxy-N-[3-(2-{[(1s,3S)-3-(trifluoromethoxy)cyclobutyl]oxy}acetamido)bicyclo[1.1.1]pentan-1-yl]-3,4-dihydro-2H-1-benzopyran-2-carboxamide] | < 0.01 µM
O=C(N[C@H]1CC[C@H](n2cc(-c3ccc(OC(F)(F)F)cn3)cn2)CC1)[C@H]1C[C@@H](O)c2cc(Cl)ccc2O1 [Compound 481, (2R,4R)-6-chloro-4-hydroxy-N-[(1r,4R)-4-{4-[5-(trifluoromethoxy)pyridin-2-yl]-1H-pyrazol-1-yl}cyclohexyl]-3,4-dihydro-2H-1-benzopyran-2-carboxamide] | < 0.01 µM
Cc1cc(C)cc(OCC2CN(C34CC(NC(=O)[C@H]5CC(=O)c6cc(Cl)ccc6O5)(C3)C4)C(=O)O2)c1 (stereo partly drawn) [Compound 100, (2R)-6-chloro-N-(3-{5-[(3,5-dimethylphenoxy)methyl]-2-oxo-1,3-oxazolidin-3-yl}bicyclo[1.1.1]pentan-1-yl)-4-oxo-3,4-dihydro-2H-1-benzopyran-2-carboxamide] | > 2 µM
O=C(NC12CC(n3cc([C@H]4CC[C@@H](OC(F)(F)F)C4)nn3)(C1)C2)[C@H]1C[C@@H](O)c2cc(Cl)ccc2O1 (relative stereo) [Compound 540, (2R,4R)-6-chloro-4-hydroxy-N-(3-{4-[(1S*,3R*)-3-(trifluoromethoxy)cyclopentyl]-1H-1,2,3-triazol-1-yl}bicyclo[1.1.1]pentan-1-yl)-3,4-dihydro-2H-1-benzopyran-2-carboxamide] | 0.01 to 0.05 µM
O=C(COc1ccc(Cl)c(F)c1)NC12CC(c3ccc(C(=O)N4CC[C@H](OC(F)(F)F)C4)nc3)(C1)C2 [Compound 603, 2-(4-chloro-3-fluorophenoxy)-N-(3-{6-[(3S)-3-(trifluoromethoxy)pyrrolidine-1-carbonyl]pyridin-3-yl}bicyclo[1.1.1]pentan-1-yl)acetamide] | < 0.01 µM
O=C(NC12CC(n3cc(C(=O)N4CC[C@H](COC(F)(F)F)C4)cn3)(C1)C2)[C@H]1C[C@@H](O)c2cc(Cl)ccc2O1 [Compound 400, (2R,4R)-6-chloro-4-hydroxy-N-[3-(4-{(3S)-3-[(trifluoromethoxy)methyl]pyrrolidine-1-carbonyl}-1H-pyrazol-1-yl)bicyclo[1.1.1]pentan-1-yl]-3,4-dihydro-2H-1-benzopyran-2-carboxamide] | 0.01 to 0.05 µM
O=C(NC12CC(n3cc4cc(OC(F)F)ccc4n3)(C1)C2)[C@H]1C[C@@H](O)c2cc(Cl)ccc2O1 [Compound 502, (2R,4R)-6-chloro-N-{3-[5-(difluoromethoxy)-2H-indazol-2-yl]bicyclo[1.1.1]pentan-1-yl}-4-hydroxy-3,4-dihydro-2H-1-benzopyran-2-carboxamide] | 0.05 to 0.25 µM
